Results from ChEMBL document CHEMBL1201862, “PubChem BioAssay data set” (2004).
The source made the active and inactive calls. For most assays here, no stated cut-off is given here; in the data, actives have a measured EC50 and inactives only a lower limit.

Legend:
HEK293 [1] = test: PMA/Ionomycin induced NF-kB luciferase assay in 293- NF-kB-Luc stable cells. [Related pubchem assays: 1299, 1270, 1295, 1375, 1287, 1281, 1293, 1291, 1289, 1280, 465, 1364, 1282, 1372, 1365, 1370, 1367, 1366, 1269, 1373, 1292, 1290, 1302, 1371, 1283, 1271, 1294, 1374, 1368, 1369 ]; type: functional, cell-based; details: Homo sapiens
[2] = Luminescence Cell-Based Dose Confirmation HTS to Identify Inhibitors of Platelet Dense Granule Release. [Related pubchem assays: 1663 (Primary HTS), 1678 (Summary of Project)]; type: functional
cells = type: functional, cell-based
[3] = molecular target: T1, Luciferin 4-monooxygenase (Photinus pyralis, UniProt P08659); test: Counter Screen for Luciferase-based Assay Positives. [Related pubchem assays: 620, 618, 411 ]
[4] = molecular target: T1, Luciferin 4-monooxygenase; test: In vitro luciferase assay using purified luciferase. [Related pubchem assays: 1299, 1270, 1295, 1375, 1287, 1281, 1293, 1291, 1289, 1280, 465, 1364, 1282, 1372, 1365, 1370, 1367, 1366, 1266, 1373, 1292, 1290, 1302, 1371, 1283, 1271, 1294, 1374, 1368, 1369 ]
[5] = alpha-synuclein stem-loop luciferase translation blockers – H4 neuroglioma cells, luminescence, confirmation (AID 1988); type: functional, cell-based
[6] = luciferase reporter signal suppression in cells – H4 neuroglioma cells, luminescence, dose response (AID 1990); type: functional, cell-based
BJ [7] = test: BJ-TERT fibroblast viability loss – cell-based, RAS-independent, luminescence, dose response (AID 1933); type: functional; details: Homo sapiens
HT-1080 = test: HT1080 cell viability loss – fluorescence readout (AID 620); type: functional, cell-based; details: Homo sapiens
[8] = luciferase reporter signal reduction – luminescence, H4-C neuroglioblastoma cells, dose response (AID 2458); type: functional, cell-based;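 further: H4 neuroglioblastoma cells stably carrying a luciferase reporter gene fusion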
BJ [9] = test: growth inhibition of engineered Ras-driven BJ cells – cell-based, alamar blue fluorescence, cherrypicked samples, dose response (AID 2631); type: functional; details: Homo sapiens;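 further: confirmatory dose-response assay in RAS-dependent BJ fibroblasts engineered with TERT, LT and ST, with cytotoxicity read by fluorescence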
[10] = HEK-293T viability loss after treatment – luminescence, T-cell screen hits, cytotoxicity control for TCR NF-kB inhibitor project, dose response (AID 489026); type: functional, cell-based;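 further: cells exposed to compound about 14 hours before the viability readout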
[11] = DRD fibroblast viability loss – cell-based, non-viral oncogenic, luminescence, dose response (AID 1934); type: functional; details: Homo sapiens
[12] = molecular target: Mitogen-activated protein kinase 10 (Homo sapiens, UniProt P53779); test: Dose response biochemical screening assay for inhibitors of c-Jun N-Terminal Kinase 3 (JNK3). [Related pubchem assays: 746 ]
HEK293 [13] = test: Cytotoxicity assay in HEK293 cells. [Related pubchem assays (depositor defined):AID1266, AID1269, AID1270, AID1271, AID1280, AID1281, AID1282, AID1283, AID1287, AID1289, AID1290, AID1291, AID1292, AID1293, AID1294, AID1295, AID1299, AID1302, AID1364, AID1365, AID1366, AID1367, AID1369, AID1370, AID1371, AID1372, AID1373, AID1374, AID1375, AID1384 …; type: functional, cell-based; details: Homo sapiens
[14] = molecular target: T1, Luciferin 4-monooxygenase; test: inhibition of purified Photinus pyralis luciferase – biochemical, luminescence, dose response (AID 1891)
[15] = alpha-synuclein stem-loop translation blockers – luminescence, H4 neuroglioblastoma cells, dose confirmation, confirmation (AID 2454); type: functional, cell-based;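 further: H4 neuroglioblastoma cells carrying an alpha-synuclein 5'UTR luciferase reporter; potency for inhibition of the luciferase signal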
BJ [16] = test: BJ-TERT-LT-ST fibroblast viability loss – cell-based, RAS-independent, luminescence, dose response (AID 1935); type: functional; details: Homo sapiens;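 further: BJ fibroblasts immortalized with TERT plus LT and ST oncogenes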
Trypsin = Trypsin (Sus scrofa, UniProt P00761); test: trypsin protease activity blockade – biochemical, quenched peptide fluorescence, cherry-pick, selectivity assay for Rce1 protease inhibitor project, dose response (AID 488789)
CAAX prenyl protease 2 = molecular target: T2, CAAX prenyl protease 2 (Homo sapiens, UniProt Q9Y256); test: inhibition of Ras-converting CAAX protease Rce1 – biochemical, yeast membranes, quenched-peptide fluorescence, cherry-pick, dose response (AID 588849)
T2 sequence (Q9Y256 whole entry): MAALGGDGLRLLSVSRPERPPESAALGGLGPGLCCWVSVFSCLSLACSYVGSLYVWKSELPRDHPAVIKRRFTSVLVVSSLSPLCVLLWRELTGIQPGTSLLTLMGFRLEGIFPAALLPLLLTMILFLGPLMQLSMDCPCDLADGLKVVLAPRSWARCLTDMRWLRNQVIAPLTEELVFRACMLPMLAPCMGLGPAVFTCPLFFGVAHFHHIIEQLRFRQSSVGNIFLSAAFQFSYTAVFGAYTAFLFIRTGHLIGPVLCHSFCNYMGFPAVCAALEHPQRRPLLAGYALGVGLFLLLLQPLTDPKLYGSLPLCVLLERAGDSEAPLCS

HeLa = test: viability loss in HeLa cells – cell-based, 24 h, cherry-picked samples, cytotoxicity control, dose response (AID 504726); type: functional; details: Homo sapiens;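 further: potency for cytotoxicity as loss of luminescence signal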
[17] = molecular target: Dual specificity protein phosphatase 3 (Homo sapiens, UniProt P51452); test: SAR VHR1 Fluorescent Assay for In Vitro dose response studies Set 2. [Related pubchem assays (depositor defined):AID1654, AID1661, AID1878]; type: functional
[18] = molecular target: T3, Tyrosine-protein phosphatase non-receptor type 7 (Homo sapiens, UniProt P35236); test: SAR analysis of chemical inhibitors of HePTP using a Fluorescent assay - Set 2. [Related pubchem assays (depositor defined):AID1059, AID1077, AID1661, AID2085, AID521]; type: functional
T3 sequence (P35236 whole entry): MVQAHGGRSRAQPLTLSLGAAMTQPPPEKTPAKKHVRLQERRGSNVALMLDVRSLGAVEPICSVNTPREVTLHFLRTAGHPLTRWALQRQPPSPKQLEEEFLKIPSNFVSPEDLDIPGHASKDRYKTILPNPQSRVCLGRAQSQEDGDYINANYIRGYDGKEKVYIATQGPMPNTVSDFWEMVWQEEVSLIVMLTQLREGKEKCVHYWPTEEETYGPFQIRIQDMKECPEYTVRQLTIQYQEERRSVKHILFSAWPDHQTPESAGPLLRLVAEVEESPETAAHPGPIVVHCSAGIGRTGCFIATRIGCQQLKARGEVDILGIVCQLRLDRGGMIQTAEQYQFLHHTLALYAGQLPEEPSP

T1 sequence (P08659 whole entry): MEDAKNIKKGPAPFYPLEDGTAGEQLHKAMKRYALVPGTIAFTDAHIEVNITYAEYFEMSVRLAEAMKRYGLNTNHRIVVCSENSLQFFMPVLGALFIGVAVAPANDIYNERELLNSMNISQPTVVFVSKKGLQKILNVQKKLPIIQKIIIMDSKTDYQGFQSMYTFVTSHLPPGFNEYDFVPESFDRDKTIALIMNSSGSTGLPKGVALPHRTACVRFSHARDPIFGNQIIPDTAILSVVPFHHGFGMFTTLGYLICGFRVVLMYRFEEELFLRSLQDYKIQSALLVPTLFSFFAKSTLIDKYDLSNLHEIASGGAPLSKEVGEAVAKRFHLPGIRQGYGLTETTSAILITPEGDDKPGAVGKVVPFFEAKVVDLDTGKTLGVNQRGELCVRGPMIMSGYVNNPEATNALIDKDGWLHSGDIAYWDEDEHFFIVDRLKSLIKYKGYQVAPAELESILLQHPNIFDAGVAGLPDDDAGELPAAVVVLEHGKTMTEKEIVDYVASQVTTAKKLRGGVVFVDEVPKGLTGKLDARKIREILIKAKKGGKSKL
Sequence of Dual specificity protein phosphatase 3 (P51452 whole entry): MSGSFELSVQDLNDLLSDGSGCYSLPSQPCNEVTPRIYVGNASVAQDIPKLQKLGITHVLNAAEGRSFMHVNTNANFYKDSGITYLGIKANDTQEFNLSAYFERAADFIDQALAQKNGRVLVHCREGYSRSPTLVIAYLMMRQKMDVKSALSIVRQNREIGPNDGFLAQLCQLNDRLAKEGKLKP
Sequence of Mitogen-activated protein kinase 10 (P53779 whole entry): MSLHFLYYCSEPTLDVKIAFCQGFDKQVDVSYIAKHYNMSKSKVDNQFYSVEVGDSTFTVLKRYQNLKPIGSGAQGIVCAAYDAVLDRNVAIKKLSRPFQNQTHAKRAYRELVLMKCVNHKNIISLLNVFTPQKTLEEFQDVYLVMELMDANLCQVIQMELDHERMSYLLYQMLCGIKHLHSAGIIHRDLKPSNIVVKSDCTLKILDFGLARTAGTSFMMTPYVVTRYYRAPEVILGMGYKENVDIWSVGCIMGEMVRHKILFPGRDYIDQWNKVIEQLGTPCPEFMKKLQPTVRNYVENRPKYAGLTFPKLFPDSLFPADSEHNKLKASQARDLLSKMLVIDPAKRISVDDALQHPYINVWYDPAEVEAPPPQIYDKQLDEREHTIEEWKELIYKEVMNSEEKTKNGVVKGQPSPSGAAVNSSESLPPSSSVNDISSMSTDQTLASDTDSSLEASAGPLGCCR
Sequence of Trypsin (P00761 whole entry): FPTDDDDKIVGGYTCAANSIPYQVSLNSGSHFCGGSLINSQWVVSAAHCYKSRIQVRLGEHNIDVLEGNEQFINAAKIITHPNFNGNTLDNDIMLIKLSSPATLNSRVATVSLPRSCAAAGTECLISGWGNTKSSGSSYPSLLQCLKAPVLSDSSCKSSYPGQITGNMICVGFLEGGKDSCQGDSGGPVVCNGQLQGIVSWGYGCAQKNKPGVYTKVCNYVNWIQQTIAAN

Question: With `CCCN1C=CC(=C2C(=O)c3ccccc3C2=O)C=C1` as the compound, how does the EC50 (HEK293 [1]) read?
Answer: The EC50 was 0.774 µM (active).

Question: What about the EC50 [2] of the same compound?
Answer: Its EC50 is 7.02 µM (active).

Question: What about the EC50 (cells) of the same compound?
Answer: The EC50 was 0.135 µM (active).

Question: And the EC50 [3]?
Answer: Its EC50 is 0.98 µM (active).

Question: And the EC50 [4]?
Answer: Its EC50 is 1.09 µM (active).

Question: And the EC50 [5]?
Answer: Its EC50 is < 0.1 µM (active).

Question: And the EC50 [6]?
Answer: The EC50 was < 0.195 µM (active).

Question: And the EC50 (BJ [7])?
Answer: Its EC50 is 6.69 µM (active).

Question: What about the EC50 (HT-1080) of the same compound?
Answer: Its EC50 is > 50 µM (not active).

Question: And the EC50 [8]?
Answer: Its EC50 is 0.127 µM (active).

Question: And the EC50 (BJ [9])?
Answer: The EC50 was > 133 µM (inactive).

Question: What about the IC50 [10] of the same compound?
Answer: The IC50 was > 80 µM (inactive).

Question: And the EC50 [11]?
Answer: Its EC50 is 6.78 µM (active).

Question: What about the IC50 [12] of the same compound?
Answer: The IC50 was 9.84 µM (active).

Question: What about the EC50 (HEK293 [13]) of the same compound?
Answer: Its EC50 is 0.589 µM (active).

Question: And the EC50 [14]?
Answer: The EC50 was 0.719 µM (active).

Question: What about the EC50 [15] of the same compound?
Answer: The EC50 was 0.139 µM (active).

Question: And the EC50 (BJ [16])?
Answer: The EC50 was 18.2 µM (active).

Question: What does the source list for `COc1cccc2[nH]c(C(=O)NC(C)c3ccccc3)cc12` (stereo not drawn)?
Answer: AC50 (Trypsin): 11.2 µM (active); AC50 (CAAX prenyl protease 2): 12.1 µM (active); AC50 (HeLa): 182 µM (active)

Question: Which results are given for `COc1cc(C(=S)NCc2ccc(C(F)(F)F)cc2)ccc1O`?
Answer: IC50 [17]: 86.9 µM (active); IC50 [18]: > 100 µM (inactive)
